Laboratory results from the supplement of paper PMC9663587.

Legend:
[1] = compound: Cc1cc(Nc2ncc(Cl)c(Nc3ccccc3S(=O)(=O)C(C)C)n2)c(OC(C)C)cc1C1CCNCC1 [Ceritinib/LDK378]
[2] = compound: CS(=O)(=O)N1CCN(Cc2cc3nc(-c4cccc5[nH]ncc45)nc(N4CCOCC4)c3s2)CC1 [Pictilisib/GDC0941]
[3] = compound: CCc1cnn2c(NCc3ccc[n+]([O-])c3)cc(N3CCCC[C@H]3CCO)nc12
[4] = compound: T1, CN(C)C(=O)c1cc2cnc(Nc3ccc(N4CCNCC4)cn3)nc2n1C1CCCC1 [LEE011/Ribociclib]
[5] = compound: Cc1nn(C)c(COc2ccc(N3CCN(S(=O)(=O)N(C)C)CC3)cc2)c1-c1cccc2c(CCCOc3cccc4ccccc34)c(C(=O)O)n(CCN3CCOCC3)c12
[6] = compound: COc1cccc2c1C(=O)c1c(O)c3c(c(O)c1C2=O)C[C@@](O)(C(=O)CO)C[C@@H]3O[C@H]1C[C@H](N)[C@H](O)[C@H](C)O1 [Doxorubicin]
[7] = compound: CCc1cnn2c(NCc3ccc[n+]([O-])c3)cc(N3CCCC[C@H]3CCO)nc12; experiment: increase in dead-cell fraction, 72 h; higher = more death;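 note: breast cancer cell lines in 384-well plates, stained with Hoechst plus LIVE/DEAD far red dye and imaged, cells above an LDR intensity threshold counted dead, Hoechst-negative corpses included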
[8] = compound: T1, LEE011/Ribociclib; experiment: as above
[9] = compound: CCN1CCN(Cc2ccc(Nc3ncc(F)c(-c4cc(F)c5nc(C)n(C(C)C)c5c4)n3)nc2)CC1; experiment: as above
[10] = compound: C=CC(=O)Nc1ccc(C(=O)Nc2[nH]nc3c2CN(C(=O)N[C@H](CN(C)C)c2ccccc2)C3(C)C)cc1 [YKL-5-124]; experiment: as above
[11] = compound: CN(C)C/C=C/C(=O)Nc1ccc(C(=O)Nc2cccc(Nc3ncc(Cl)c(-c4c[nH]c5ccccc45)n3)c2)cc1 [THZ1]; experiment: as above
[12] = compound: CN(C)C/C=C/C(=O)Nc1ccc(C(=O)N2CCC[C@@H](Nc3ncc(Cl)c(-c4c[nH]c5ccccc45)n3)C2)cc1 [THZ531]; experiment: as above
[13] = compound: CN1CC[C@H](c2c(O)cc(O)c3c(=O)cc(-c4ccccc4Cl)oc23)[C@H](O)C1 [Flavopiridol]; experiment: as above
[14] = compound: CC(=O)c1c(C)c2cnc(Nc3ccc(N4CCN(CCOCCOCCOCCNC(=O)COc5cccc6c5C(=O)N(C5CCC(=O)NC5=O)C6=O)CC4)cn3)nc2n(C2CCCC2)c1=O [BSJ-03-123]; experiment: as above
[15] = compound: CC(=O)c1c(C)c2cnc(Nc3ccc(N4CCNCC4)cn3)nc2n(C2CCCC2)c1=O; experiment: as above
[16] = compound: CCOc1cc2ncc(C#N)c(Nc3ccc(OCc4ccccn4)c(Cl)c3)c2cc1NC(=O)/C=C/CN(C)C [Neratinib/HKI272]; experiment: as above
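Throughout, for GR50, 72 h: breast cancer and non-malignant breast epithelial cell lines, Deep Dye Drop or Dye Drop imaging, nine half-log doses, GR normalized to time-zero plates and DMSO-only controls.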

**Q.** For AU565, which “GR50, 72 h” value [1] is on record?
**A.** 3.15 µM

**Q.** And the “GR50, 72 h” value [2]?
**A.** 0.067 µM

**Q.** And the “GR50, 72 h” value [3]?
**A.** 0.00743 µM

**Q.** What about the “GR50, 72 h” value [4] of the same cell line?
**A.** 0.663 µM

**Q.** And the “GR50, 72 h” value [5]?
**A.** > 10 µM

**Q.** And the “GR50, 72 h” value [6]?
**A.** 0.0352 µM

**Q.** What about the “increase in dead-cell fraction” value ([7]; 0.0001 µM) of the same cell line?
**A.** 0.0029

**Q.** And the “increase in dead-cell fraction” value ([7]; 0.0003162 µM)?
**A.** 0.0001

**Q.** What about the “increase in dead-cell fraction” value ([7]; 0.001 µM) of the same cell line?
**A.** 0.0027

**Q.** What about the “increase in dead-cell fraction” value ([7]; 0.003162 µM) of the same cell line?
**A.** 0.0033

**Q.** What about the “increase in dead-cell fraction” value ([7]; 0.01 µM) of the same cell line?
**A.** 0.0437

**Q.** And the “increase in dead-cell fraction” value ([7]; 0.03162 µM)?
**A.** 0.247

**Q.** What about the “increase in dead-cell fraction” value ([7]; 0.1 µM) of the same cell line?
**A.** 0.346

**Q.** What about the “increase in dead-cell fraction” value ([7]; 0.3162 µM) of the same cell line?
**A.** 0.315

**Q.** What about the “increase in dead-cell fraction” value ([7]; 1 µM) of the same cell line?
**A.** 0.345

**Q.** What about the “increase in dead-cell fraction” value ([8]; 0.001 µM) of the same cell line?
**A.** -0.0067

**Q.** And the “increase in dead-cell fraction” value ([8]; 0.003162 µM)?
**A.** -0.0027

**Q.** And the “increase in dead-cell fraction” value ([8]; 0.01 µM)?
**A.** 0.0258

**Q.** What about the “increase in dead-cell fraction” value ([8]; 0.03162 µM) of the same cell line?
**A.** 0.0105

**Q.** What about the “increase in dead-cell fraction” value ([8]; 0.1 µM) of the same cell line?
**A.** 0.0143

**Q.** What about the “increase in dead-cell fraction” value ([8]; 0.3162 µM) of the same cell line?
**A.** 0.0331

**Q.** What about the “increase in dead-cell fraction” value ([8]; 1 µM) of the same cell line?
**A.** 0.0469

**Q.** What about the “increase in dead-cell fraction” value ([8]; 3.162 µM) of the same cell line?
**A.** 0.0463

**Q.** And the “increase in dead-cell fraction” value ([8]; 10 µM)?
**A.** 0.0439

**Q.** And the “increase in dead-cell fraction” value ([9]; 0.001 µM)?
**A.** 0.0076

**Q.** What about the “increase in dead-cell fraction” value ([9]; 0.003162 µM) of the same cell line?
**A.** 0.0065

**Q.** And the “increase in dead-cell fraction” value ([9]; 0.01 µM)?
**A.** 0.0106

**Q.** And the “increase in dead-cell fraction” value ([9]; 0.03162 µM)?
**A.** 0.0354

**Q.** What about the “increase in dead-cell fraction” value ([9]; 0.1 µM) of the same cell line?
**A.** 0.043

**Q.** And the “increase in dead-cell fraction” value ([9]; 0.3162 µM)?
**A.** 0.0403

**Q.** What about the “increase in dead-cell fraction” value ([9]; 1 µM) of the same cell line?
**A.** 0.0369

**Q.** And the “increase in dead-cell fraction” value ([9]; 3.162 µM)?
**A.** 0.0205

**Q.** And the “increase in dead-cell fraction” value ([9]; 10 µM)?
**A.** 0.085

**Q.** And the “increase in dead-cell fraction” value ([10]; 0.001 µM)?
**A.** 0.0305

**Q.** And the “increase in dead-cell fraction” value ([10]; 0.003162 µM)?
**A.** 0.0489

**Q.** What about the “increase in dead-cell fraction” value ([10]; 0.01 µM) of the same cell line?
**A.** 0.0994

**Q.** What about the “increase in dead-cell fraction” value ([10]; 0.03162 µM) of the same cell line?
**A.** 0.0877

**Q.** And the “increase in dead-cell fraction” value ([10]; 0.1 µM)?
**A.** 0.0813

**Q.** What about the “increase in dead-cell fraction” value ([10]; 0.3162 µM) of the same cell line?
**A.** 0.114

**Q.** What about the “increase in dead-cell fraction” value ([10]; 1 µM) of the same cell line?
**A.** 0.113

**Q.** And the “increase in dead-cell fraction” value ([10]; 3.162 µM)?
**A.** 0.215

**Q.** And the “increase in dead-cell fraction” value ([10]; 10 µM)?
**A.** 0.524

**Q.** What about the “increase in dead-cell fraction” value ([11]; 0.0001 µM) of the same cell line?
**A.** -0.0048

**Q.** What about the “increase in dead-cell fraction” value ([11]; 0.0003162 µM) of the same cell line?
**A.** -0.0064

**Q.** What about the “increase in dead-cell fraction” value ([11]; 0.001 µM) of the same cell line?
**A.** -0.0098

**Q.** What about the “increase in dead-cell fraction” value ([11]; 0.003162 µM) of the same cell line?
**A.** -0.0018

**Q.** What about the “increase in dead-cell fraction” value ([11]; 0.01 µM) of the same cell line?
**A.** 0.0038

**Q.** And the “increase in dead-cell fraction” value ([11]; 0.03162 µM)?
**A.** 0.0873

**Q.** And the “increase in dead-cell fraction” value ([11]; 0.1 µM)?
**A.** 0.262

**Q.** And the “increase in dead-cell fraction” value ([11]; 0.3162 µM)?
**A.** 0.48

**Q.** And the “increase in dead-cell fraction” value ([11]; 1 µM)?
**A.** 0.579

**Q.** And the “increase in dead-cell fraction” value ([12]; 0.0001 µM)?
**A.** 0.0002

**Q.** What about the “increase in dead-cell fraction” value ([12]; 0.0003162 µM) of the same cell line?
**A.** 0.0023

**Q.** What about the “increase in dead-cell fraction” value ([12]; 0.001 µM) of the same cell line?
**A.** -0.0009

**Q.** What about the “increase in dead-cell fraction” value ([12]; 0.003162 µM) of the same cell line?
**A.** 0.0019

**Q.** What about the “increase in dead-cell fraction” value ([12]; 0.01 µM) of the same cell line?
**A.** -0.005

**Q.** And the “increase in dead-cell fraction” value ([12]; 0.03162 µM)?
**A.** 0.0372

**Q.** And the “increase in dead-cell fraction” value ([12]; 0.1 µM)?
**A.** 0.133

**Q.** What about the “increase in dead-cell fraction” value ([12]; 0.3162 µM) of the same cell line?
**A.** 0.297

**Q.** And the “increase in dead-cell fraction” value ([12]; 1 µM)?
**A.** 0.488

**Q.** What about the “increase in dead-cell fraction” value ([13]; 0.0001 µM) of the same cell line?
**A.** -0.0146

**Q.** What about the “increase in dead-cell fraction” value ([13]; 0.0003162 µM) of the same cell line?
**A.** -0.004

**Q.** What about the “increase in dead-cell fraction” value ([13]; 0.001 µM) of the same cell line?
**A.** 0.0124

**Q.** And the “increase in dead-cell fraction” value ([13]; 0.003162 µM)?
**A.** 0.0024

**Q.** What about the “increase in dead-cell fraction” value ([13]; 0.01 µM) of the same cell line?
**A.** -0.0083

**Q.** And the “increase in dead-cell fraction” value ([13]; 0.03162 µM)?
**A.** 0.0121

**Q.** What about the “increase in dead-cell fraction” value ([13]; 0.1 µM) of the same cell line?
**A.** 0.0266

**Q.** What about the “increase in dead-cell fraction” value ([13]; 0.3162 µM) of the same cell line?
**A.** 0.262

**Q.** What about the “increase in dead-cell fraction” value ([13]; 1 µM) of the same cell line?
**A.** 0.602

**Q.** What about the “increase in dead-cell fraction” value ([14]; 0.001 µM) of the same cell line?
**A.** 0.0012

**Q.** What about the “increase in dead-cell fraction” value ([14]; 0.003162 µM) of the same cell line?
**A.** -0.0066

**Q.** What about the “increase in dead-cell fraction” value ([14]; 0.01 µM) of the same cell line?
**A.** 0.0069

**Q.** What about the “increase in dead-cell fraction” value ([14]; 0.03162 µM) of the same cell line?
**A.** -0.0059

**Q.** And the “increase in dead-cell fraction” value ([14]; 0.1 µM)?
**A.** 0.0078

**Q.** And the “increase in dead-cell fraction” value ([14]; 0.3162 µM)?
**A.** 0.0057

**Q.** And the “increase in dead-cell fraction” value ([14]; 1 µM)?
**A.** 0.0399

**Q.** What about the “increase in dead-cell fraction” value ([14]; 3.162 µM) of the same cell line?
**A.** 0.0336

**Q.** And the “increase in dead-cell fraction” value ([14]; 10 µM)?
**A.** 0.306

**Q.** What about the “increase in dead-cell fraction” value ([15]; 0.0003162 µM) of the same cell line?
**A.** -0.0036

**Q.** What about the “increase in dead-cell fraction” value ([15]; 0.001 µM) of the same cell line?
**A.** -0.0011

**Q.** And the “increase in dead-cell fraction” value ([15]; 0.003162 µM)?
**A.** 0.0019

**Q.** What about the “increase in dead-cell fraction” value ([15]; 0.01 µM) of the same cell line?
**A.** -0.0007

**Q.** And the “increase in dead-cell fraction” value ([15]; 0.03162 µM)?
**A.** 0.008

**Q.** And the “increase in dead-cell fraction” value ([15]; 0.1 µM)?
**A.** 0.0139

**Q.** What about the “increase in dead-cell fraction” value ([15]; 0.3162 µM) of the same cell line?
**A.** 0.0209

**Q.** And the “increase in dead-cell fraction” value ([15]; 1 µM)?
**A.** 0.0255

**Q.** What about the “increase in dead-cell fraction” value ([15]; 3.162 µM) of the same cell line?
**A.** 0.0446

**Q.** And the “increase in dead-cell fraction” value ([16]; 0.0003162 µM)?
**A.** 0.0048

**Q.** What about the “increase in dead-cell fraction” value ([16]; 0.001 µM) of the same cell line?
**A.** 0.0173

**Q.** What about the “increase in dead-cell fraction” value ([16]; 0.003162 µM) of the same cell line?
**A.** 0.0398

**Q.** And the “increase in dead-cell fraction” value ([16]; 0.01 µM)?
**A.** 0.0858

**Q.** And the “increase in dead-cell fraction” value ([16]; 0.03162 µM)?
**A.** 0.16

**Q.** What about the “increase in dead-cell fraction” value ([16]; 0.1 µM) of the same cell line?
**A.** 0.195

**Q.** And the “increase in dead-cell fraction” value ([16]; 0.3162 µM)?
**A.** 0.232

**Q.** What about the “increase in dead-cell fraction” value ([16]; 1 µM) of the same cell line?
**A.** 0.206

**Q.** What about the “increase in dead-cell fraction” value ([16]; 3.162 µM) of the same cell line?
**A.** 0.321
